PMC8572102 (Pharmacogenomics and Personalized Medicine, 2021)
Read-outs that look alike come from different tables or passages of the source.

Columns and labels:
[1] = test system: CYP2C19 and CYP3A4; details: major metabolite of voriconazole, in vitro studies; cited from earlier work
[2] = type: in vivo, human (Chinese patients)

Row | SMILES | Share of all metabolites [1] | Frequency of supra-therapeutic levels (> 5µg/mL) ([2]; CYP2C19 intermediate metabolizer patients) | Frequency of supra-therapeutic levels (> 5µg/mL) ([2]; CYP2C19 normal metabolizer patients) | Frequency of supra-therapeutic levels (> 5µg/mL) ([2]; CYP2C19 poor metabolizer patients) | Median trough concentration of voriconazole in sub-group analysis ([2]; PM/PPIs users group, excluding cases administered omeprazole or esomeprazole) | concentration at 12 h ([2]; human, plasma, 200 mg, Voriconazole trough concentration, median (IQR), all patients, 250 samples from 114 patients, voriconazole 200mg 12hrly, steady state)
1 | C[C@@H](c1nc[n+]([O-])cc1F)[C@](O)(Cn1cncn1)c1ccc(F)cc1F [voriconazole N-oxide] | about 74% |  |  |  |  | 
2 | C[C@@H](c1ncncc1F)[C@](O)(Cn1cncn1)c1ccc(F)cc1F [voriconazole] |  | 13.5% | 15.4% | 47.8% | below supra-therapeutic levels | 2100 ng/mL
